According to patent publication US6552062B1, “Indazole derivatives with 5-HT2 receptor activity” (Vernalis Research Limited, priority 1998, dated 2003):
Structures can show the parent of a compound that is named as a salt.

Tests used:
human 5-HT2B receptors = target: T1, human 5-HT2B receptors (Homo sapiens, UniProt P41595); experiment: Binding to 5-HT2B receptor, [3H]-5-HT radioligand, Method (b); details: human 5-HT2B receptors in a CHO cell line, read-out: Method (b) Ki (2B)
T1 construct: expressed in transfected cells; host or cells: CHO cell line
Protocol: (§1) The binding of compounds of formula I to serotonin receptors was determined in vitro by standard methods. The preparations were investigated in accordance with the assays given hereinafter.
Method (b): For the binding to the 5-HT2B receptor the 5-HT2B receptors were radiolabeled with [^3H]-5-HT. The affinity of the compounds for human 5-HT2B receptors in a CHO cell line was determined according to the procedure of K. Schmuck, C. Ullmer, P. Engels and H. Lubbert, FEBS Lett., 1994, 342, 85-90.

human 5-HT2C [1] = target: T2, human 5-HT2C (Homo sapiens, UniProt P28335); experiment: Functional activity, FLIPR calcium assay, CHO cells expressing human 5-HT2C; type: cell-based; design: expressed in transfected cells; host or cells: CHO cells; details: for EC50: CHO cells, FLIPR, Fluo-3-AM, read-out: h5-HT2C EC50; for Emax: CHO, maximum fluorescent signal relative to 10 μM 5-HT (defined as 100%), read-out: h5-HT2C Relative Efficacy (%)
T2 sequence (P28335 33-458): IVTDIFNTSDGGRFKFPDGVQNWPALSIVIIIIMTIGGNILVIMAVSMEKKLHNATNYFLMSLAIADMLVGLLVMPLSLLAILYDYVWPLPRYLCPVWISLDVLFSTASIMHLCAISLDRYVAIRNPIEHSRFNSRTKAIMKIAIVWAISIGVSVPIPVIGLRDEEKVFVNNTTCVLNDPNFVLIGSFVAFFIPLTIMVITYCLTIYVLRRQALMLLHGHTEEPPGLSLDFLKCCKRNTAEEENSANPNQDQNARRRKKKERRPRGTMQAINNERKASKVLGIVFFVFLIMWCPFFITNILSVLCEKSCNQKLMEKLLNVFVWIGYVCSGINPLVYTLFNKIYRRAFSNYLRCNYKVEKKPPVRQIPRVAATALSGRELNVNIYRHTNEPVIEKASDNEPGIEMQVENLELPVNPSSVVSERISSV
Protocol: (§2) The functional activity of compounds of formula (I) was assayed using a Fluorimetric Imaging Plate reader (FLIPR). CHO cells expressing the human 5-HT2C or human 5-HT2A receptors were counted and plated into standard 96 well microtitre plates on the day before testing to give a confluent monolayer. The cells were then dye loaded with the calcium sensitive dye, Fluo-3-AM. Unincorporated dye was removed using an automated cell washer to leave a total volume of 100 μL/well of assay buffer (Hanks balanced salt solution containing 20 mM Hepes and 2.5 mM probenecid). The drug (dissolved in 50 μL of the assay buffer) was added at a rate of 70 μL/sec to each well of the FLIPR 96 well plate during fluorescence measurements. The measurements were taken at 1 sec intervals and the maximum fluorescent signal was measured (approx 10-15 secs after drug addition) and compared with the response produced by 10 μM 5-HT (defined as 100%) to which it was expressed as a percentage response (relative efficacy). Dose response curves were constructed using Graphpad Prism (Graph Software Inc.).

human 5-HT2C [2] = target: T2, human 5-HT2C; experiment: Binding to 5-HT2C receptor, [3H]-5-HT radioligand, Method (a); design: expressed in transfected cells; host or cells: CHO cell line; details: 5-HT2C receptors in a CHO cell line, read-out: Method (a) Ki (2C)
Protocol: as §1
Method (a): For the binding to the 5-HT2C receptor the 5-HT2C receptors were radiolabeled with [^3H]-5-HT. The affinity of the compounds for 5-HT2C receptors in a CHO cell line was determined according to the procedure of D. Hoyer, G. Engel and H. O. Kalkman, European J Pharmacol., 1985, 118, 13-23.

human 5-HT2A receptors = target: T3, human 5-HT2A receptors (Homo sapiens, UniProt P28223); experiment: Functional activity, FLIPR calcium assay, CHO cells expressing human 5-HT2A; type: cell-based; details: for EC50: CHO cells, FLIPR, Fluo-3-AM, read-out: h5-HT2A EC50; for h5-HT2A Relative Efficacy (%): maximum fluorescent signal relative to 10 μM 5-HT (defined as 100%)
T3 construct: expressed in transfected cells; host or cells: CHO cells
Protocol: as §2

T1 sequence (P41595 whole entry): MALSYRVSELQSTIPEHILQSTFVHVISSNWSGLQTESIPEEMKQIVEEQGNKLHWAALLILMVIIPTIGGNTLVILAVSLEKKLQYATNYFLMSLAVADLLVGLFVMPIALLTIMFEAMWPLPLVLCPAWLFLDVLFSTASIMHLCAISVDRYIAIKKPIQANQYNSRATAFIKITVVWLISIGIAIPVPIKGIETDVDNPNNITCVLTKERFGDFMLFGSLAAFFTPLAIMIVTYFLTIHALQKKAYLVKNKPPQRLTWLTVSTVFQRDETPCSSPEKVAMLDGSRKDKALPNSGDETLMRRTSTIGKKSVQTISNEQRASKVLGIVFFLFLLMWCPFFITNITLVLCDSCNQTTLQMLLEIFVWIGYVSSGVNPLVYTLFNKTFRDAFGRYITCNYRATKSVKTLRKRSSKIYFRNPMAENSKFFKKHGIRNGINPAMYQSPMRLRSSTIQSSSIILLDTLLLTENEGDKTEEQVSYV
T3 sequence (P28223 whole entry): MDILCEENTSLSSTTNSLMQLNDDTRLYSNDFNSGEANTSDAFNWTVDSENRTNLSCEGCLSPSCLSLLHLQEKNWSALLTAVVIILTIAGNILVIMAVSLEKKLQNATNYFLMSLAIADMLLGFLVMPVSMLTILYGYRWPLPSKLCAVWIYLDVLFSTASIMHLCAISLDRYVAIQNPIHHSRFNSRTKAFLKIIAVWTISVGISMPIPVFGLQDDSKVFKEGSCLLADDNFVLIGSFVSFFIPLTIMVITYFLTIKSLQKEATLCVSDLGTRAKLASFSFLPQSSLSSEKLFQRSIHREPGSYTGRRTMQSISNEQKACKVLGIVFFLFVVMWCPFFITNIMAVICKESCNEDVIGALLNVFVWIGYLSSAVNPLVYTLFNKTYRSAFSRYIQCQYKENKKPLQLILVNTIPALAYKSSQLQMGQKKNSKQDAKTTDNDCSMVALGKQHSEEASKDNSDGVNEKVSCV

Compound	melting point	Ki (human 5-HT2B receptors)	EC50 (human 5-HT2C [1])	Emax (human 5-HT2C [1])	Ki (human 5-HT2C [2])	EC50 (human 5-HT2A receptors)	h5-HT2A Relative Efficacy (%) (human 5-HT2A receptors)
COc1ccc2c(C)nn(C[C@H](C)N)c2c1 (as salt: fumarate) [Example 2, (S)-1-(6-Methoxy-3-methylindazol-1-yl)-2-propylamine Fumarate]	180 to 181 °C						
Cc1nn(C[C@H](C)N)c2cc(F)c(F)cc12 (as salt: fumarate) [Example 3, (S)-1-(5,6-Difluoro-3-methylindazol-1-yl)-2-propylamine Fumarate]	160 to 161 °C						
Cc1nn(C[C@H](C)N)c2cc(Cl)c(F)cc12 (as salt: fumarate) [Example 4, (S)-1-(6-Chloro-5-fluoro-3-methylindazol-1-yl)-2-propylamine Fumarate]	158 to 159 °C						
CCc1nn(C[C@H](C)N)c2cc(F)ccc12 (as salt: fumarate) [Example 6, (S)-1-(3-Ethyl-6-fluoroindazol-1-yl)-2-propylamine Fumarate]	143 to 145 °C						
CCc1nn(C[C@H](C)N)c2cc(Br)ccc12 (as salt: fumarate) [Example 7, (S)-1-(6-Bromo-3-ethylindazol-1-yl)-2-propylamine Fumarate]	148 to 150 °C						
CCc1nn(C[C@H](C)N)c2cc(SC)ccc12 (as salt: fumarate) [Example 8, (S)-1-(3-Ethyl-6-methylthioindazol-1-yl)-2-propylamine Fumarate]	147 to 149 °C						
Cc1nn(CC(C)N)c2ccccc12 (racemic) [Example 1, (RS)-1-(3-Methylindazol-1-yl)-2-propylamine Fumarate]		241 nM	960 nM	55%	431 nM		
COc1ccc2c(C)nn(C[C@H](C)N)c2c1 [Example 2, (S)-1-(6-Methoxy-3-methylindazol-1-yl)-2-propylamine Fumarate]		135 nM	44 nM	74%	210 nM	108 nM	59%
Cc1nn(C[C@H](C)N)c2cc(F)c(F)cc12 [Example 3, (S)-1-(5,6-Difluoro-3-methylindazol-1-yl)-2-propylamine Fumarate]		63 nM	84 nM	67%	140 nM	152 nM	50%
Cc1nn(C[C@H](C)N)c2cc(Cl)c(F)cc12 [Example 4, (S)-1-(6-Chloro-5-fluoro-3-methylindazol-1-yl)-2-propylamine Fumarate]		26 nM	48 nM	76%	75 nM	137 nM	65%
CCc1nn(C[C@H](C)N)c2cc(C(F)(F)F)ccc12 [Example 5, (S)-1-(3-Ethyl-6-trifluoromethylindazol-1-yl)-2-propylamine Fumarate]			877 nM	73%			
CCc1nn(C[C@H](C)N)c2cc(F)ccc12 [Example 6, (S)-1-(3-Ethyl-6-fluoroindazol-1-yl)-2-propylamine Fumarate]			52 nM	47%		288 nM	32%
CCc1nn(C[C@H](C)N)c2cc(Br)ccc12 [Example 7, (S)-1-(6-Bromo-3-ethylindazol-1-yl)-2-propylamine Fumarate]			88 nM	69%		739 nM	39%
CCc1nn(C[C@H](C)N)c2cc(SC)ccc12 [Example 8, (S)-1-(3-Ethyl-6-methylthioindazol-1-yl)-2-propylamine Fumarate]		47 nM	8 nM	81%	37 nM	285 nM	48%
